In patent US20160039936A1, “FIBROBLAST GROWTH FACTOR RECEPTOR INHIBITION FOR THE TREATMENT OF DISEASE” (UNIVERSITY OF MIAMI, priority 2011, published 2016):
“Also recorded” adds a separate entry of the source.

Columns and labels:
[1] = test system: isolated neonatal rat ventricular cardiac myocytes (NRVM); experiment: Surface area (hypertrophy) of isolated NRVM, immunocytochemistry and morphometry (Examples 1-2); format: cell-based; settings: for cell surface area: 48 h incubation with the FGF alone; for FGF2-induced increase in cell surface area (hypertrophy) in presence of inhibitor: 48 h FGF2, inhibitor pre-treated 60 min at Table 2 concentration; for FGF23-induced increase in cell surface area (hypertrophy) in presence of inhibitor: 48 h FGF23, inhibitor pre-treated 60 min at Table 2 concentration
Method: NRVM were isolated using a standard isolation system (Worthington Biochemical Corporation) (Toraason et al., Toxicology, 56(1):107-117, 1989). Hearts from 1-2 day old Sprague Dawley rats (Charles River) were harvested, minced in calcium- and magnesium-free Hank's Balanced Salt Solution (HBSS), and the tissue digested with 50 μg/ml trypsin at 4° C. for 20-24 hours. Soybean trypsin inhibitor in HBSS was added and the tissue was further digested with collagenase (in Leibovitz L-15 medium) under slow rotation (15 rpm) at 37° C. for 45 minutes. Cells were released by gently triturating the suspension 20 times with a standard 10 ml plastic serological pipette and filtering it twice through a cell strainer (70 μm, BD Falcon). Cells were incubated at room temperature for 20 minutes and spun at 100 g for 5 minutes. The cell pellet was resuspended in plating medium [Dulbecco's Modified Eagle Medium (DMEM; Cellgro) with 17% Media 199 (Invitrogen), 15% fetal bovine serum (FBS; Invitrogen) and 1% penicillin/streptomycin solution (P/S; Invitrogen)]. Cells were counted using a hemocytometer.
Cells were plated on glass and plastic surfaces which were coated with laminin (Invitrogen; 10μg/ml in PBS) at room temperature for 1 hour prior to plating. For immunofluorescence analysis, 1×10^6 cells were seeded per well on glass coverslips in 6-well plates. For protein and RNA isolation, 2×10^6 cells were seeded in 6 cm-culture dishes. Cells were left undisturbed in plating medium at 37° C. for 72 hours and then cultured in maintenance medium (DMEM with 20% Media 199, 1% insulin-transferrin-sodium selenite solution (ITS; Sigma-Aldrich) and 1% P/S) in the presence of 100 μM 5-bromo-2′-deoxyuridine (BrdU; Sigam-Aldrich) to eliminate proliferating non-myocytes resulting in a relatively pure population of isolated cardiac myocytes (Bishopric et al., 1987). After 4 days, isolated cardiac myocytes were cultured in BrdU-containing maintenance medium in the presence of recombinant murine FGF23 (26.1 kDa, 251 amino acids; R&D Systems) or FGF2 (16.2 kDa, 144 amino acids; R&D Systems) for 48 hours.
We analyzed isolated NRVM on laminin-coated glass coverslips by immunocytochemsitry according to our established protocols (Faul et al., Cell Biol., 169(3):415-424, 2005; Faul et al., Cell Biol., 27(23):8215-8227, 2007). The mouse monoclonal antibody against sarcomeric α-actinin (EA-53; Sigma-Aldrich) was used at 1:1000 and Cy3-conjugated goat-anti mouse (Jackson Immuno Research) as secondary antibody at 1:750. To visualize nuclei, fixed cells were incubated with 4′,6-diamidino-2-phenylindole (DAPI; 400 ng/ml in PBS) for 5 minutes. Immunofluorescence images were taken on a Leica TCS-SP5 confocal microscope with a 63× oil objective with a 1.6× zoom. Leica AF6000 fluorescence software was used to measure the cell surface area based on α-actinin-positive staining.
To assess the signaling pathways involved in FGF23- and FGF2-mediated hypertrophy, we analyzed the morphometry of plated cells that were pre-treated with specific inhibitors for 60 minutes prior to the addition of the FGFs at varying concentrations.

C57BL/6 mice = experiment: Intravenous injection of FGFs (with or without Fc-FGFR decoy receptors) in mice; format: in vivo, mouse; settings: 40 μg/kg FGF, ten times over five days
Method: Twelve-week old adult C57BL/6 mice underwent tail vein injections using standard protocols as previously described for the systemic delivery of plasmid DNA (Faul et al., 2008). Briefly, mice were placed in a restrainer and 40 μg/kg of FGF23 dissolved in 200 μl of PBS were injected into the tail vein of 5 mice twice daily with eight hours in between injections for 5 consecutive days. Four mice underwent the same injection schedule using 200 μl of PBS alone as negative control. On the morning of the 6th day, 16 hours after the final tail vein injections, animals were sacrificed and the hearts were isolated and prepared using the same protocol as described above.
Short-axis cardiac sections were used to quantify myocardial thickness by measuring the distance from the inner to the outer myocardial zone at the mid-chamber zone. […] Since klothro-ablated kl/kl mice display severe growth retardation with small hearts (Kuro-o et al., Nature, 390(6655):45-51, 1997), we also measured relative wall thickness calculated as two times the anterior wall thickness divided by left ventricular internal diameter. Total RNA was isolated from flash frozen hearts using TRIzol (Invitrogen) and RT-PCR analyses were performed as described above.
We measured cross-sectional surface area of cardiac myocytes in paraffin-embedded short-axis sections of the heart. Briefly, 7 μm thick sections were deparaffinized according to our established protocols. To specifically label cardiac myocytes, we used mouse monoclonal MF20 antibody against sarcomeric myosin at 1:200 and Cy5-conjugated donkey-anti mouse (Invitrogen) as secondary antibody at 1:400. To visualize nuclei, fixed tissue was incubated with 4′,6-diamidino-2-phenylindole (DAPI; 400 ng/ml in PBS) for 5 minutes. To visualize cellular borders, fixed tissue was incubated with wheat germ agglutinin (WGA) conjugated to Alexa Fluor 555 (Invitrogen) at 1 mg/ml in PBS containing 10 mM sodium azide. Immunofluorescence images were taken on a Leica TCS-SP5 confocal microscope with a 63× oil objective. Leica AF6000 fluorescence software was used to quantify cross-sectional cell surface area of 25 cells per field at four fields along the mid-chamber free wall based on WGA-positive staining.
Next, we wanted to determine the effectiveness of this FGFR trapping system on FGF-induced LVH in mice. To our knowledge, Fc decoy receptors have not yet been used to study FGFR function in vivo in any biological context, but served as valuable tools to analyze the functions of other receptor tyrosine kinases, like receptors for vascular endothelial growth factor (VEGFR) and their role in tumor growth and metastasis. We used similar Fc-FGFR concentrations as described for Fc-VEGFR in animal models of cancer (Lin J et al., Cancer Res. 2005; 65(15):6901-9).

[2] = test system: neonatal mouse ventricular myocytes (NMVM); experiment: Hypertrophic growth and β-MHC of isolated NMVM (wild-type or FGFR4−/−); format: cell-based; settings: 48 h
Method: NMVM were isolated enzymatically (Kreusser et al., 2014). Briefly, hearts from 1-3 day-old mice were harvested, minced in PBS/glucose and further digested with collagenase type 2 (0.2% w/v) and DNase (0.05% w/v) on a rotary shaker at 37° C. for 11 minutes. Cells were then released from the tissue by triturating the suspension twice with a standard 10 ml plastic serological pipette, transferred to DF10 medium (Dulbecco's Modified Eagle Medium/Ham's Nutrient Mixture F12 adjusted to 17 mM NaHCO2 containing 2 mM L-glutamine, 1% P/S and 10% FBS), and stored on ice. The remaining tissue was further incubated in PBS/glucose/collagenase/DNase solution on a rotary shaker at 37° C. for 11 minutes. The trituration and incubation steps were repeated 5-7 times until the tissue was completely dissolved. Cells were pelleted at 300 g for 5 minutes, resuspended in DF20 media (Dulbecco's Modified Eagle Medium/Ham's Nutrient Mixture F12 adjusted to 17 mM NaHCO2 containing 2 mM L-glutamine, 1% P/S and 20% FBS), and preplated for 1 hour to eliminate fibroblasts. Remaining cells were counted using a hemocytometer and plated on glass and plastic surfaces, which were coated with laminin (Sigma-Aldrich; 10 μg/ml in PBS) at room temperature for 1 hour prior to plating. For immunofluorescence analysis, 3×10^5 cells were seeded per well on glass coverslips in 24-well plates. For Western blot analyses of total protein extracts, 5×10^6 cells were seeded in 10 cm-culture dishes. Cells were left undisturbed in DF20 medium at 37° C. for 72 hours, starved overnight with DF medium (Dulbecco's Modified Eagle Medium/Ham's Nutrient Mixture F12 adjusted to 17 mM NaHCO2 containing 2 mM L-glutamine, 1% P/S), and treated in DF medium with recombinant FGF23, FGF2 (both at 100 ng/ml) or AngII (1 μM, Sigma-Aldrich) for 48 hours.
HEK293 cells, NRVM or NMVM were treated with growth factors for 30 minutes to analyze activation of signal transduction mediators, or for 48 hours to analyze expression levels of hypertrophic marker proteins. Cells were scraped from 6-well plates using 500 μl CHAPS extraction buffer (20 mM Tris-HCl pH7.5, 500 mM NaCl, 0.5% CHAPS, protease inhibitor cocktail (Roche), protein phosphatase inhibitors [Sigma-Aldrich]) and incubated on ice for 30 minutes. The cell lysate was centrifuged at 14,000 rpm and 4° C. for 30 minutes, and the supernatant boiled in sample buffer and analyzed by SDS-PAGE and immunoblotting. For protein extraction from mouse hearts, tissue was isolated, minced and homogenized in RIPA extraction buffer (50 mM Tris-HCl pH 7.5, 200 mM NaCl, 1% Triton X-100, 0.25% DOC, 1 mM EDTA, 1 mM EGTA, protease and phosphatase inhibitors) at 1:10 (w:v), and protein lysates were prepared as described above.
Cultured cells were fixed in 2% PFA (in 5 mg/ml sucrose) for 5 minutes and permeabilized in 1% Triton X-100 (in PBS) for 10 minutes. We analyzed hypertrophic growth of isolated NRVM and NMVM on laminin-coated glass coverslips after 48 hours of treatment with growth factors. For FGFR4 expression and localization analyses, untreated NMVM from wild-type and FGFR4^−/− mice were immunolabeled. The mouse monoclonal antibody against sarcomeric α-actinin (EA-53; Sigma-Aldrich) was used at 1:1,000, and rabbit polyclonal anti-FGFR4 (C-16; Santa Cruz) at 1:50. Cy3-conjugated goat-anti mouse and Alexa488-conjugated goat-anti rabbit (Jackson Immuno Research) were used as secondary antibodies at 1:300. To visualize nuclei, fixed cells were incubated with 4′,6-diamidino-2-phenylindole (DAPI; 400 ng/ml in PBS) for 10 minutes. Immunofluorescence images were taken on a Leica TCS-SP5 confocal microscope with a 63× oil objective.
Myocyte cross-sectional area was measured based on α-actinin-positive staining using Leica AF6000 fluorescence software. […]

Row | Molecule | cell surface area [1] | FGF2-induced increase in cell surface area (hypertrophy) in presence of inhibitor [1] | FGF23-induced increase in cell surface area (hypertrophy) in presence of inhibitor [1] | also measured
1 | FGF4 | no change in size; also recorded: did not induce a hypertrophic response | – | – | –
2 | COc1cccc(-c2cc(=O)c3ccccc3o2)c1N [PD98059] | – | completely prevented | only partially diminished | –
3 | FGF19: endocrine fibroblast growth factor 19 | significant dose-dependent increase | – | – | induction of LVH (C57BL/6 mice): significant induction of LVH
4 | angiotensin (Ang) II [AngII, pro-hypertrophic angiotensin II (Sigma-Aldrich), reference compound] | – | – | – | expression of β-MHC protein in FGFR4−/− NMVM ([2]; immunoblot): induced this effect; expression of β-MHC protein in wild-type NMVM ([2]; immunoblot): increased expression; cross-sectional area (size) of NMVM from FGFR4−/− mice ([2]; FGF 100 ng/ml, AngII 1 μM): increase the size; cross-sectional area of wild-type NMVM ([2]; FGF 100 ng/ml, AngII 1 μM): significant increases
5 | O=c1[nH]c2ccccc2n1C1CCN(Cc2ccc(-c3nc4cc5nc[nH]c5cc4nc3-c3ccccc3)cc2)CC1 [A6730] | – | partially attenuated | did not significantly alter | –
6 | N#CC(=C(/N)Sc1ccccc1N)/C(C#N)=C(\N)Sc1ccccc1N [U0126] | – | completely prevented | only partially diminished | –
7 | COc1ccc2c(c1)CC[C@@H]1[C@@H]2CC[C@]2(C)[C@@H](NCCCCCCN3C(=O)C=CC3=O)CC[C@@H]12 [U73122] | – | had no effect | attenuated | –
8 | FGF21: endocrine fibroblast growth factor 21 (protein, UniProt Q9NSA1 29-209, looked up) Fibroblast growth factor 21: HPIPDSSPLLQFGGQVRQRYLYTDDAQQTEAHLEIREDGTVGGAADQSPESLLQLKALKPGVIQILGVKTSRFLCQRPDGALYGSLHFDPEACSFRELLLEDGYNVYQSEAHGLPLHLPGNKSPHRDPAPRGPARFLPLPGLPPALPEPPGILAPQPPDVGSSDPLSMVGPSQGRSPSYAS | significant dose-dependent increase | – | – | induction of LVH (C57BL/6 mice): significant induction of LVH
